Data set [1] relates to 70Z3-C3 cells. The data set is described as follows: Cellular uptake of BODIPY-labeled peptides by FACS. As to conditions: for reduction of the uptake of A-UBI-SAHND306-Q313 by endocytosis inhibitor: 30 min pre-incubation, nystatin 50 μg/ml, chlorpromazine 10 μg/ml, ethylisopropylamiloride 100 μM. Type of data set: cell-based. The procedure: 2.2×10^5 cells in 100 μl of 70Z3-C3 were incubated with either 10 μM or with various doses of 10 μM, 5 μM and 1 μM of labeled-peptides at 37° C., 5% CO2. Similarly to fluorescence microscopy experiments, cells alone or incubated with BODIPY®-labeled BSA (ref) or BODIPY®-UBI devoid of the antennapedia cell penetrating sequence were used as negative control, whereas cells with BA-UBI [1] at 10 μM were used as positive control. After 2 h incubation, cells were washed 4 times with PBS at room temperature, and finally diluted 1:3 in PBS before subjected to FACS analysis. Along with the BODIPY® fluorophore the fluorescence intensity was recorded at 525±25 nm using the Gallios Flow cytometer (Beckman Coulter) to analyse each cells sample. Each internalization peptide was assessed by gating a population of 15,000 events and the data were analysed using Kaluza software version 1.2.
For determination of cellular uptake by flow cytometry, the BA-UBI-SAHND306-Q313 stapled peptide was first incubated with 2.2×10^5 70Z3-C3 cells in […] either at 4° C. or 37° C. for 2 h. Bodipy-labeled BSA, bodipy alone and bodipy-UBI were used as negative controls to verify the washing quality and efficient removal of any non-specific binding at the cell surface before FACS analysis. […] After 2 h of incubation, cells were washed four times with PBS at room temperature and diluted at 1:3 in PBS for FACS analysis. Samples were analyzed as previously described in the European patent (No: 15307137.8).

The target in data set [2] is NF-κB pathway (Mus musculus, UniProt O88522). Nature of the data set: NF-κB inhibition assay, LPS-stimulated 70Z3-C3 lacZ reporter cells. It counts as cell-based. As to conditions: 70Z3-C3 cells, 2 h peptide then LPS 4 h; N.I = No inhibition observed. The text has this:
The stable cell line of pre-B lymphocyte 70Z3-C3 cells expressing the lacZ reporter gene under the control of NF-κB was previously described. OCI-Ly3 (ABC-DLBCL, MALT1 dependent) and OCI-Ly7 (GCB-DLBCL). U2932 (ABC-DLBCL, MALT1 independent) were purchased from DSMZ (Deutsche Sammlung von Mikroorganismen and Zellkulturen) and HLY1 (ABC-DLBCL, MALT1 independent). Jurkat T-cells were obtained after transduction of lentiviruses containing a NF-κB reporter luciferase gene as previously described. All cell lines were grown in RPMI 1640 medium supplemented with 10% FBS, 10 μg/ml of streptomycin, 10 U/ml of penicillin and kept at 37° C., in a 5% CO2 humidified incubator. 0.05 mM of β-mercaptoethanol was added for 70Z3-C3. Primary and secondary antibodies were as following: polyclonal rabbit anti NF-κB p65, (sc-372, Santa Cruz Biotechnology, Inc) Alexa-488 coupled goat anti-rabbit IgG1 (Invitrogen) NF-κB inhibition assay was almost similar to those previously described in [1], except that luminescence data were monitored with a Centro XS^3, LB960 luminometer (Berthold technologies.), which is more sensitive. All experiments were performed in duplicates in 96-well plates. […] After 4 h incubation, cells were centrifuged 7 min at 400×g, at 4° C.

Data set [3] can be described thus: CD spectroscopy, α-helical content. It counts as physicochemical. As to conditions: 50 μM peptide, phosphate buffer pH 7.0, UBI in TFE taken as 100%.
Data set [4] is described as follows: Temperature-induced denaturation followed by CD. Type of data set: physicochemical. As to conditions: 30 μM or 300 μM, ΔCp ≈ 0; for Tm: thermal denaturation by CD; for ΔH: van't Hoff enthalpy change at Tm. The procedure: Temperature-induced denaturation experiments were performed by measuring the ellipticity at 222 nm from 1° C. to 95° C. in 1° C. steps, at a rate of 1° C./min, with a 2 nm bandwidth. Thermodynamic parameters including the melting temperature (Tm) and the van't Hoff enthalpy change at the melting temperature (ΔHm) were determined by fitting the denaturation curves with the Gibbs-Helmholtz equation as described elsewhere, [10]. The heat capacity change (ΔCp) was assumed to be 0 as judged by ΔHm which yielded similar values within 10% at two independent peptide concentrations (30 and 300 μM). The ellipticity was converted to differential extinction coefficient Δε (M^−1·cm^−1) per residue taking into account the peptide concentration determined by amino acid analysis.
Thermal stability of the peptides was also investigated by performing thermal denaturation profiles followed by CD (FIGS. 1 C and D and Table III). […] Indeed, the helicity of UBI-Aib (49%) is only 1.16-fold increased at 1° C. compared to UBI (42%), while its melting temperature (Tm=−8° C.) is 2.25 times higher than that of UBI (Tm=−18° C.).

Data set [5] deals with CC2-LZ domain of NEMO (Mus musculus, UniProt O88522). The data set is described as follows: Fluorescence anisotropy/polarization binding assay. As to conditions: for Kd: fixed peptide concentration 0.1 μM, read-out: Binding affinity (FP) at 0.1 μM.
Sequence of CC2-LZ domain of NEMO (O88522 242-343 limits assumed): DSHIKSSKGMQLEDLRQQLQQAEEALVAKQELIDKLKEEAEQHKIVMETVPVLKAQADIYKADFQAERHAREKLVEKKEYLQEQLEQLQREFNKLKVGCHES
Procedure: Measurements were performed on a Tecan infinite F500 equipped with polarizing filters and using excitation and emission wavelengths at 485 nm and 535 nm, respectively. Anisotropy data were calculated using the Magellan software version 6.5. Prior experiments, the mouse CC2-LZ was extensively dialyzed in binding buffer containing 20 mM HEPES pH 7.4, 100 mM NaCl, and 0.05% P20 detergent (v/v). All experiments were performed in a 384 well plate (vol 25 μl) at room temperature. The BODIPY®-labeled peptide concentrations were fixed at 0.1 or 10 μM whereas the CC2-LZ concentration varied from 0 to 100 μM. Reference calibrated at 22 mP, was based on the fluorescence of the peptide alone. Each experimental binding curve was determined from at least 10 independent concentration points. The G-factor was calculated as previously described in Agou et al. [7], with a value of 0.75, which was observed constant within 5% upon all titrations. For analysis, the blank value corresponding to the value of buffer alone, was subtracted from all titration data.
All NEMO peptides were conjugated to an extra N-terminal cysteine with the fluorophore BODIPY® or FITC to determine their binding affinity for the CC2-LZ domain of NEMO (also called NOA or UBAN) by fluorescence polarization. For each peptide titration, various concentration of the target ranging from 0 to 100 μM and a fixed concentration of peptide at 0.1 or 10 μM were used at 25° C. […] For these reasons, all further titration experiments were performed with a fixed peptide concentration of 0.1 μM unless otherwise indicated.

Where a SMILES comes first, the peptide text is derived from it. Bridges are numbered along the chain shown (N, C = ends). [ ]: non-standard residue; d: D form. The star is where a group is joined. BODIPYFLEthylmaleimide = Cc1cc(C)n2c1C=C1C=CC(CCC(=O)NCCN3C(=O)CC(*)C3=O)=[N+]1[B-]2(F)F; R8 = C=CCCCCCC[C@@](C)(N)C(=O)O; S5 = C=CCCC[C@](C)(N)C(=O)O

Sequence of NF-κB pathway (O88522 whole entry): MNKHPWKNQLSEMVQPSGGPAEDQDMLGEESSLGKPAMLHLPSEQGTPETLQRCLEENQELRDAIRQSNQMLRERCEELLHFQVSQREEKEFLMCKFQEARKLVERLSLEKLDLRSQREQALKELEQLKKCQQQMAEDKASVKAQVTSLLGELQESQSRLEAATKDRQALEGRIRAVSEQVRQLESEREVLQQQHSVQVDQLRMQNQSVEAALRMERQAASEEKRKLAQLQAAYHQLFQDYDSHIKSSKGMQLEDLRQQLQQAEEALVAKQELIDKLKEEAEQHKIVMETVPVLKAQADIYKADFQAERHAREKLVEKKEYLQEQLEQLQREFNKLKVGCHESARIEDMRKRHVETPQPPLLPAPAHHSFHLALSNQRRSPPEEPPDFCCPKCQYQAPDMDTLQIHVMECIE

Turning to `C[C@@H]1[C@H](O)[C@@H](C)/C=C/C=C/CC/C=C/C=C/C=C/C=C/C(O[C@H]2O[C@H](C)[C@@H](O)[C@H](N)[C@@H]2O)CC2O[C@](O)(CC(O)C(O)CCC(O)CC(O)CC(O)CC(=O)O[C@H]1C)CC(O)C2C(=O)O` (stereo partly drawn) [nystatin, reference compound], in data set [1], the “reduction of the uptake of A-UBI-SAHND306-Q313 by endocytosis inhibitor” value is listed as 50%.
As to `CC[C@H](C)[C@H](NC(=O)[C@H](CC(=O)O)NC(=O)[C@H](C)NC(=O)[C@H](CCC(N)=O)NC(=O)[C@H](C)NC(=O)[C@H](CCCCN)NC(=O)[C@@H](N)CC(C)C)C(=O)N[C@@H](Cc1ccc(O)cc1)C(=O)N[C@@H](CCCCN)C(=O)N[C@@H](C)C(=O)N[C@@H](CCCNC(=N)N)C(=O)N[C@@H](Cc1ccccc1)C(=O)N[C@@H](CCC(N)=O)C(=O)N[C@@H](C)C(=O)N[C@@H](CCC(=O)O)C(=O)N[C@@H](CCCNC(=N)N)C(=O)N[C@@H](Cc1c[nH]cn1)C(=O)N[C@@H](C)C(=O)N[C@@H](CCCNC(=N)N)C(=O)N[C@@H](CCC(=O)O)C(=O)N[C@@H](CCCCN)C(=O)O` [UBI, reference compound] (H-LKAQADIYKARFQAERHAREK-OH), the “IC 50 NF-κB inhibition” value in data set [2] is “N.I*”.
Turning to `CC(=O)N[C@@H](CSC1CC(=O)N(CCNC(=O)CCC2=[N+]3C(=Cc4c(C)cc(C)n4[B-]3(F)F)C=C2)C1=O)C(=O)N[C@@H](CCC(=O)O)C(=O)N[C@@H](CC(C)C)C(=O)N[C@@H](C)C(=O)N[C@@H](CCC(N)=O)C(=O)N[C@@H](CC(C)C)C(=O)N[C@@H](CCC(N)=O)C(=O)N[C@@H](C)C(=O)N[C@@H](CCC(=O)O)C(=O)N[C@@H](CC(C)C)C(=O)N[C@@H](CC(=O)O)C(=O)N[C@]1(C)CCCCCCC=CCCC[C@@](C)(C(=O)N[C@@H](CC(=O)O)C(=O)N[C@@H](CCCCN)C(=O)N[C@@H](CCC(N)=O)C(=O)N[C@@H](CCC(=O)O)C(=O)N[C@@H](CC(C)C)C(=O)N[C@@H](CCCNC(=N)N)C(=O)N[C@@H](CCCCN)C(=O)N[C@@H](CC(C)C)C(N)=O)NC(=O)[C@H](CCC(N)=O)NC(=O)[C@H](C(C)C)NC(=O)[C@H](C(C)C)NC(=O)[C@H](C)NC(=O)[C@H](CCC(N)=O)NC(=O)[C@H](C(C)C)NC1=O` (single isomer, unassigned) [Co-SAHN I307-A314 (B), ELAQLQAELDXVQAVVQXDKQELRKL, reference compound], the “α-helical content at 1° C.” value in data set [3] was “B: 58%”. In data set [4], the ΔS result is given as “B: −24 cal. mol^−1.K^−1”, the Tm stood at 32 ± 0.3 C° and the ΔH entry was “B: −7200 (cal. mol)^−1”. The Kd in data set [5] is greater than 800 µM.
`CCN(c1nc(N)c(C(=O)N=C(N)N)nc1Cl)C(C)C` [ethylisopropylamiloride, 5-(N-ethyl-N-isopropyl) amiloride, reference compound]: the “reduction of the uptake of A-UBI-SAHND306-Q313 by endocytosis inhibitor” value in data set [1] is on record as 26%.
Consider `CN(C)CCCN1c2ccccc2Sc2ccc(Cl)cc21` [chlorpromazine, reference compound], for which the inhibition at 10 µg/mL in data set [1] (read-out: reduction of the uptake of A-UBI-SAHND306-Q313 by endocytosis inhibitor) came out at 59%.
Take `CC[C@H](C)[C@@H]1NC(=O)[C@](C)(NC(=O)[C@H](C)NC(=O)[C@H](CCC(N)=O)NC(=O)[C@H](C)NC(=O)[C@H](CCCCN)NC(=O)[C@H](CC(C)C)NC(=O)[C@H](CSC2CC(=O)N(CCNC(=O)CCC3=[N+]4C(=Cc5c(C)cc(C)n5[B-]4(F)F)C=C3)C2=O)NC(C)=O)CCCCCCC=CCCC[C@@](C)(C(=O)N[C@@H](C)C(=O)N[C@@H](CCC(N)=O)C(=O)N[C@@H](CCCNC(=N)N)C(=O)N[C@@H](Cc2c[nH]cn2)C(=O)N[C@@H](C)C(=O)N[C@@H](CCCNC(=N)N)C(=O)N[C@@H](CCC(N)=O)C(=O)N[C@@H](CCCCN)C(N)=O)NC(=O)[C@H](Cc2ccccc2)NC(=O)[C@H](CCCNC(=N)N)NC(=O)[C@H](C)NC(=O)[C@H](CCCCN)NC(=O)[C@H](Cc2ccc(O)cc2)NC1=O` (stereo partly drawn) [UBI-SAHN D306-Q313 Q/Q] (Ac-C(BODIPYFLEthylmaleimide)LKAQA[R8]IYKARF[S5]AQRHARQK-NH2; staple 7-14): in data set [1], the “cell internalization by FACS, in words” value is “became cell permeable”.
With `CC[C@H](C)[C@@H]1NC(=O)[C@](C)(NC(=O)[C@H](C)NC(=O)[C@H](CCC(N)=O)NC(=O)[C@H](C)NC(=O)[C@H](CCCCN)NC(=O)[C@H](CC(C)C)NC(=O)[C@H](CSC2CC(=O)N(CCNC(=O)CCC3=[N+]4C(=Cc5c(C)cc(C)n5[B-]4(F)F)C=C3)C2=O)NC(C)=O)CCCCCCC=CCCC[C@@](C)(C(=O)N[C@@H](C)C(=O)N[C@@H](CCC(=O)OC)C(=O)N[C@@H](CCCNC(=N)N)C(=O)N[C@@H](Cc2c[nH]cn2)C(=O)N[C@@H](C)C(=O)N[C@@H](CCCNC(=N)N)C(=O)N[C@@H](CCC(=O)OC)C(=O)N[C@@H](CCCCN)C(N)=O)NC(=O)[C@H](Cc2ccccc2)NC(=O)[C@H](CCCNC(=N)N)NC(=O)[C@H](C)NC(=O)[C@H](CCCCN)NC(=O)[C@H](Cc2ccc(O)cc2)NC1=O` (stereo partly drawn) [UBI-SAHN D306-Q313 OMe, LKAQAX2IYKARFX5AX7RHARX9K] (Ac-C(BODIPYFLEthylmaleimide)LKAQA[R8]IYKARF[S5]AE(OMe)RHARE(OMe)K-NH2; staple 7-14), in data set [1], the “cell internalization by FACS, in words” value was “became cell permeable”. For the same compound, the Kd in data set [5] came out at 24 ± 5 µM.
With `CC[C@H](C)[C@@H]1NC(=O)[C@H](CC(=O)O)NC(=O)[C@H](C)NC(=O)[C@H](CCC(N)=O)NC(=O)[C@](C)(NC(=O)[C@H](CCCCN)NC(=O)[C@H](CC(C)C)NC(=O)[C@H](CSC2CC(=O)N(CCNC(=O)CCC3=[N+]4C(=Cc5c(C)cc(C)n5[B-]4(F)F)C=C3)C2=O)NC(C)=O)CCCCCC/C=C/CCC[C@@](C)(C(=O)N[C@@H](CCCNC(=N)N)C(=O)N[C@@H](Cc2ccccc2)C(=O)N[C@@H](CCC(N)=O)C(=O)N[C@@H](C)C(=O)N[C@@H](CCC(=O)O)C(=O)N[C@@H](CCCNC(=N)N)C(=O)N[C@@H](Cc2c[nH]cn2)C(=O)N[C@@H](C)C(=O)N[C@@H](CCCNC(=N)N)C(=O)N[C@@H](CCC(=O)O)C(=O)N[C@@H](CCCCN)C(N)=O)NC(=O)[C@H](CCCCN)NC(=O)[C@H](Cc2ccc(O)cc2)NC1=O` (stereo partly drawn) [UBI-SAHN A303-A310 (B)] (Ac-C(BODIPYFLEthylmaleimide)LK[R8]QADIYK[S5]RFQAERHAREK-NH2; staple (E) 4-11; N-terminus and C-terminus assumed), in data set [3], the “α-helical content at 1° C.” value is on record as “B: 80%”. In addition, the “α-helical content at 1° C.” value in data set [3] (listed as UBI-SAHNA303-A310 (B)) came to 80%. Further, in data set [4], the ΔS entry is reported as “B: −21 cal. mol^−1.K^−1”, the Tm stood at 33 ± 0.3 C° and the ΔH result is recorded as “B: −6510 (cal. mol)^−1”. In addition, the “Binding affinity (FP) at 10 μM” value in data set [5] (fixed peptide concentration 10 μM) is “weak binding”.

For the origin of these results see patent US11884708B2, “Stapled peptide inhibitors of nemo as potential anti-inflammatory and anti-cancer drugs” (INSTITUT PASTEUR, priority 2015, dated 2024).
